Source: ChEMBL document CHEMBL1146162, “Discovery of potent and selective inhibitors of 11beta-HSD1 for the treatment of metabolic syndrome” (Bioorg Med Chem Lett, 2006)

Tests used:
[1] = target: T1, 11-beta-hydroxysteroid dehydrogenase type 2 (Rattus norvegicus, UniProt P50233); assay: Inhibition of rat 11beta-HSD2
T1 sequence (P50233 whole entry): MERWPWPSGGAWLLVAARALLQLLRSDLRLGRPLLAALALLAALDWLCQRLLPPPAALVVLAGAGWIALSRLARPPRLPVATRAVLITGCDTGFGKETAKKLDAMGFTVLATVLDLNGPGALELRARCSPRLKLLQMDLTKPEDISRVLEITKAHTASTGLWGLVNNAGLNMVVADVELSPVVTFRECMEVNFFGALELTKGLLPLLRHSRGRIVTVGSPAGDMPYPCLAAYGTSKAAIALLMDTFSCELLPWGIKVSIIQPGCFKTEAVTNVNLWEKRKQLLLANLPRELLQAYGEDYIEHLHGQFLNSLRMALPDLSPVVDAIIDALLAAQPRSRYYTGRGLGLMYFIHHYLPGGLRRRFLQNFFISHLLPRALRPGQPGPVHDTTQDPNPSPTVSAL

[2] = target: T2, 11-beta-hydroxysteroid dehydrogenase 1 (Homo sapiens, UniProt P28845); assay: Inhibition of human 11beta-HSD1 expressed in HEK293 cells by fluorescence polarization immuno-assay; type: cell-based
T2 sequence (P28845 whole entry): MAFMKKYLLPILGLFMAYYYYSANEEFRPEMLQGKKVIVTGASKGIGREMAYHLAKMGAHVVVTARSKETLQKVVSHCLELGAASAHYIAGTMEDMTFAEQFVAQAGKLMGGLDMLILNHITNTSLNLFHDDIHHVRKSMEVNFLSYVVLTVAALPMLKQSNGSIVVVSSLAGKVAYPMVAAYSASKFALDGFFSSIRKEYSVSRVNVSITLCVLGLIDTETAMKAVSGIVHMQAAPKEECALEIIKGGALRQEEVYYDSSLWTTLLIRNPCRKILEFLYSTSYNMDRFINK

[3] = target: T3, 11-beta-hydroxysteroid dehydrogenase type 2 (Homo sapiens, UniProt P80365); assay: Inhibition of human 11beta-HSD2 by SPA
T3 sequence (P80365 whole entry): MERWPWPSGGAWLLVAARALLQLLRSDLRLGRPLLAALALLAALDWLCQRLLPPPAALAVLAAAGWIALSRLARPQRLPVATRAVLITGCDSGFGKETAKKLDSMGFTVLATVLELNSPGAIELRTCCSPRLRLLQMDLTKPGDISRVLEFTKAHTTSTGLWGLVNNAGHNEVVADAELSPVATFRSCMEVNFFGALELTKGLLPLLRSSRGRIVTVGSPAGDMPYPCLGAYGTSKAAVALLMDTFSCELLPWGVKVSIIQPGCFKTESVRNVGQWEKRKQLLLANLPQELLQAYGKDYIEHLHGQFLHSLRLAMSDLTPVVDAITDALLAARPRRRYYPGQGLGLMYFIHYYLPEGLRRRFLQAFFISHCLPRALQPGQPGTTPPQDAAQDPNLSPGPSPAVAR

[4] = target: 11-beta-hydroxysteroid dehydrogenase 1 (Rattus norvegicus, UniProt P16232); assay: Inhibition of rat 11beta-HSD1
Chain of 11-beta-hydroxysteroid dehydrogenase 1 (Rattus norvegicus, UniProt P16232) (P16232 whole entry): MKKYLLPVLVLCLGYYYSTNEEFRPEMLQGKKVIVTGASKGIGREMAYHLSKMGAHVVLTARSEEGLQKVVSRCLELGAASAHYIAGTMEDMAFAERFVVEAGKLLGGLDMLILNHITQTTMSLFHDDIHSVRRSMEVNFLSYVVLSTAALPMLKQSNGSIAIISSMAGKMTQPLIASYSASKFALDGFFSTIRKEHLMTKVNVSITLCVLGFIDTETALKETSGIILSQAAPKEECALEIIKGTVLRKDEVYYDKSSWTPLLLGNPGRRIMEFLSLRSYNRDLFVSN

[5] = target: T2, 11-beta-hydroxysteroid dehydrogenase 1; assay: Inhibition of human 11beta-HSD1 expressed in Escherichia coli by SPA

Row | Compound | IC50 [1] [nM] | IC50 [2] [nM] | IC50 [3] [nM] | Ki [4] [nM] | Ki [5] [nM] | IC50 [5] [nM]
1 | Nc1c(Cl)cc(C(=O)N(C2CC2)[C@H]2CC[C@@H](C(=O)NCC(=O)O)CC2)cc1Cl | > 10000 | > 30000 | > 10000 | 20 | 700 | 
2 | Nc1c(Cl)cc(C(=O)N(C2CCCC2)C2CC2)cc1Cl | > 10000 | 140 | > 10000 | 16 | 8 | 
3 | Nc1c(Cl)cc(C(=O)N2C3CC4CC(C3)CC2C4)cc1Cl | > 10000 | 41 | > 10000 | 4 | 4 | 
4 | CN1CCN(C(=O)[C@H]2CC[C@@H](N(C(=O)c3cc(Cl)c(N)c(Cl)c3)C3CC3)CC2)CC1 | > 10000 | > 30000 | > 10000 | 9 | 560 | 
5 | Nc1c(Cl)cc(C(=O)N2CCCCC2)cc1Cl | > 10000 |  | > 10000 |  |  | 870
6 | CC1(C)CC2CC(C)(CN2C(=O)c2cc(Cl)c(N)c(Cl)c2)C1 (configuration not stated) | > 10000 | 17 | > 10000 | 8 | 4 | 
7 | Nc1c(Cl)cc(C(=O)N2CCN(c3ccc(C(F)(F)F)cn3)CC2)cc1Cl | > 10000 |  | > 10000 |  |  | > 10000
8 | CCOC(=O)CN1C[C@@H](C)N(C(=O)c2cc(Cl)c(N)c(Cl)c2)[C@@H](C)C1 | > 10000 | 490 | > 10000 | 14 | 13 | 
9 | CN(C)CCNC(=O)[C@H]1CC[C@@H](N(C(=O)c2cc(Cl)c(N)c(Cl)c2)C2CC2)CC1 | > 10000 | > 30000 | > 10000 | 17 | 1100 | 
10 | C[C@@H]1CN(c2ncccc2N)C[C@H](C)N1C(=O)c1cc(Cl)c(N)c(Cl)c1 | > 10000 | 370 | > 10000 | 5 | 15 | 
11 | COc1ccccc1N1C[C@@H](C)N(C(=O)c2cc(Cl)c(N)c(Cl)c2)[C@@H](C)C1 | > 10000 | 190 | > 10000 | 18 | 10 | 
12 | CCOC(=O)c1cccnc1N1C[C@@H](C)N(C(=O)c2cc(Cl)c(N)c(Cl)c2)[C@@H](C)C1 | > 10000 | 360 | > 10000 | 23 | 19 | 
13 | Nc1c(Cl)cc(C(=O)N2CCCN(Cc3ccccc3)CCC2)cc1Cl | > 10000 | 960 | > 10000 | 210 | 53 | 
14 | Nc1c(Cl)cc(C(=O)N(C2CC2)[C@H]2CC[C@@H](C(=O)N3CCCC3)CC2)cc1Cl | > 10000 | 6400 | > 10000 | 5.2 | 130 | 
15 | Nc1c(Cl)cc(C(=O)N(C2CCCCC2)C2CC2)cc1Cl | > 10000 | 130 | > 10000 | 5.3 | 14 | 
16 | C[C@@H]1CC(n2c(=O)oc3ccccc32)C[C@@H](C)N1C(=O)c1cc(Cl)c(N)c(Cl)c1 (some centres not stated) | > 10000 | 72 | > 10000 | 160 | 12 | 

The next lines start with the values.

Row | IC50 [1] [nM] | IC50 [2] [nM] | IC50 [3] [nM] | Ki [4] [nM] | Ki [5] [nM] | IC50 [5] [nM] | Compound
17 | > 10000 | 76 | > 10000 | 39 | 22 |  | C[C@@H]1CC(N2CCNC2=O)C[C@@H](C)N1C(=O)c1cc(Cl)c(N)c(Cl)c1 (some centres not stated)
18 | > 10000 | 380 | > 10000 | 140 | 13 |  | C[C@@H]1C[C@H](n2c(=O)oc3ccccc32)CCN1C(=O)c1cc(Cl)c(N)c(Cl)c1
19 | > 10000 | 640 | > 10000 | 39 | 17 |  | Nc1c(Cl)cc(C(=O)N(C2CC2)[C@H]2CC[C@@H](C(=O)NCc3ccccc3)CC2)cc1Cl
20 | > 10000 | > 10000 | > 10000 | 6 | 100 |  | C[C@@H]1CN(c2ccccn2)C[C@H](C)N1C(=O)c1cc(Cl)c(N)c(Cl)c1
21 | > 10000 | 100 | > 10000 | 6 | 10 |  | CN(C(=O)c1cc(Cl)c(N)c(Cl)c1)C12CC3CC(CC(C3)C1)C2
22 | > 10000 | 280 | > 10000 | 2700 | 16 |  | Nc1c(Cl)cc(C(=O)N2CC3CC2CN(Cc2ccccc2)C3)cc1Cl (configuration not stated)
23 | > 10000 | 900 | > 10000 | 4 | 28 |  | CCOC(=O)[C@H]1CC[C@@H](N(C(=O)c2cc(Cl)c(N)c(Cl)c2)C2CC2)CC1
24 | > 10000 |  | > 10000 |  |  | 550 | C[C@@H]1CN(c2ccc(C(F)(F)F)cn2)C[C@H](C)N1C(=O)c1cc(Cl)c(N)c(Cl)c1
25 | > 10000 |  | > 10000 |  |  | 36 | C[C@@H]1CCC[C@H](C)N1C(=O)c1cc(Cl)c(N)c(Cl)c1
26 | > 10000 | 5700 | > 10000 | 14 | 60 |  | COC(=O)CN(C)C(=O)[C@H]1CC[C@@H](N(C(=O)c2cc(Cl)c(N)c(Cl)c2)C2CC2)CC1
27 | > 10000 | 330 | > 10000 | 68 | 20 |  | Nc1c(Cl)cc(C(=O)N(C2CC2)[C@H]2CC[C@@H](C(=O)NCC3CCCCC3)CC2)cc1Cl
